Assay results as given in ChEMBL document CHEMBL5620416, “Design, synthesis and development of a dual inhibitor of Topoisomerase 1 and poly (ADP-ribose) polymerase 1 for efficient killing of cancer cells” (Eur J Med Chem, 2023).
Activity calls are given as the source filed them. The calls are words filed in the database; no cut-off is given here.

What was measured:
[1] = test system: HCT-116; experiment: Cytotoxicity against human HCT-116 cells incubated for 72 hrs by MTT assay; format: functional, cell-based; conditions: HCT-116, 72 h
[2] = test system: MIA PaCa-2; experiment: Cytotoxicity against human MIA PaCa-2 cells incubated for 72 hrs by MTT assay; format: functional, cell-based; conditions: MIA PaCa-2, 72 h
[3] = test system: PANC-1; experiment: Cytotoxicity against human PANC-1 cells incubated for 72 hrs by MTT assay; format: functional, cell-based; conditions: PANC-1, 72 h
[4] = test system: HCT-116; experiment: Cytotoxicity against human HCT-116 cells at greater than 10 uM incubated for 7 to 10 days by crystal violet staining based assay; format: functional, cell-based; conditions: time 7-10 day
[5] = test system: MIA PaCa-2; experiment: Cytotoxicity against human MIA PaCa-2 cells at greater than 10 uM incubated for 7 to 10 days by crystal violet staining based assay; format: functional, cell-based; conditions: time 7-10 day
[6] = test system: PANC-1; experiment: Cytotoxicity against human PANC-1 cells at greater than 10 uM incubated for 7 to 10 days by crystal violet staining based assay; format: functional, cell-based; conditions: time 7-10 day
[7] = test system: HCT-116; experiment: Cytotoxicity against human HCT-116 cells at less than 10 uM incubated for 7 to 10 days by crystal violet staining based assay; format: functional, cell-based; conditions: time 7-10 day
[8] = test system: MIA PaCa-2; experiment: Cytotoxicity against human MIA PaCa-2 cells at less than 10 uM incubated for 7 to 10 days by crystal violet staining based assay; format: functional, cell-based; conditions: time 7-10 day
[9] = test system: PANC-1; experiment: Cytotoxicity against human PANC-1 cells at less than 10 uM incubated for 7 to 10 days by crystal violet staining based assay; format: functional, cell-based; conditions: time 7-10 day
[10] = test system: HCT-116; experiment: Induction of TOP1-DNA covalent complex PARlyation in human HCT-116 cells at 1 uM measured upto 24 hrs by RADAR assay; format: functional, cell-based
[11] = test system: DNA topoisomerase 1/Deoxyribonucleic acid (Homo sapiens); experiment: Induction of TOP1-DNA covalent complex stabilization in human HCT-116 cells at 10 to 20 uM after 4 to 6 hrs by RADAR assay; format: cell-based; conditions: dose 10-20 µM, time 4-6 hrs
[12] = test system: DNA topoisomerase 1/Deoxyribonucleic acid (Homo sapiens); experiment: Induction of TOP1-DNA covalent complex stabilization in human HCT-116 cells at 10 to 20 uM after 2 hrs by RADAR assay; format: cell-based; conditions: dose 10-20 µM
[13] = test system: DNA topoisomerase 1/Deoxyribonucleic acid (Homo sapiens); experiment: Induction of TOP1-DNA covalent complex degradation in human HCT-116 cells at 1 uM by RADAR assay; format: cell-based; conditions: time 2-24 hrs, TDE = time-dependent effect
[14] = test system: Calf thymus DNA; experiment: Binding affinity to calf thymus pUC19 DNA assessed as intercalating activity by measuring conformational change in DNA at 50 to 100 uM incubated for 30 mins by EtBr staining based agarose gel electrophoresis; format: nucleic-acid assay; conditions: Bos taurus, dose 50-100 µM
[15] = test system: HCT-116; experiment: Induction of PARylation in human HCT-116 cells at 20 uM incubated for 2 to 8 hrs by Western blotting analysis; format: functional, cell-based; conditions: time 2-8 hrs

SMILES	IC50 [1] [µM]	IC50 [2] [µM]	IC50 [3] [µM]	Activity [4]	Activity [5]	Activity [6]	also measured
COc1ccc(Cc2nn(CCc3nnc(SCCN4C(=O)c5cccc6cccc(c56)C4=O)o3)c(=O)c3ccccc23)cc1	> 25	> 25	> 25	Active	Active	Active	
O=C1c2cccc3cccc(c23)C(=O)N1CCSc1nnc(CCn2nc(Cc3ccc(F)cc3)c3ccccc3c2=O)o1	12.5	11	13				Activity [7]: Active; Activity [8]: Active; Activity [9]: Active
CC[C@@]1(O)C(=O)OCc2c1cc1n(c2=O)Cc2cc3ccccc3nc2-1							Activity [10]: Active; Activity [11]: inactive; Activity [12]: Active; Activity [13]: Tde
COc1cccc2c1C(=O)c1c(O)c3c(c(O)c1C2=O)C[C@@](O)(C(=O)CO)C[C@@H]3O[C@H]1C[C@H](N)[C@H](O)[C@H](C)O1							Activity [14]: Active
O=C1c2cccc3cccc(c23)C(=O)N1CCCc1nnc(Cn2nc(Cc3ccc(F)cc3)c3ccccc3c2=O)o1	> 25	> 25	> 25	Active	Active	Active	
O=C1c2cccc3cccc(c23)C(=O)N1CCSc1nnc(CCCn2nc(Cc3ccccc3)c3ccccc3c2=O)o1	> 25	> 25	> 25	Active	Active	Active	
O=C(c1cc(Cc2n[nH]c(=O)c3ccccc23)ccc1F)N1CCN(C(=O)C2CC2)CC1 [OLAPARIB]	9	8	7				Activity [15]: inactive
O=C1NC(=O)c2cccc3cccc1c23	15	18	20				
O=C1c2cccc3cccc(c23)C(=O)N1CCSc1nnc(Cn2nc(Cc3ccccc3)c3ccccc3c2=O)o1	> 25	> 25	> 25	Active	Active	Active	
COc1ccc(Cc2nn(CCCc3nnc(SCCN4C(=O)c5cccc6cccc(c56)C4=O)o3)c(=O)c3ccccc23)cc1	> 25	> 25	> 25	Active	Active	Active	
O=C1c2cccc3cccc(c23)C(=O)N1CCSc1nnc(CCn2nc(Cc3ccccc3)c3ccccc3c2=O)o1	> 25	> 25	> 25				
COc1ccc(Cc2nn(Cc3nnc(SCCN4C(=O)c5cccc6cccc(c56)C4=O)o3)c(=O)c3ccccc23)cc1	13.5	14	13				Activity [7]: Active; Activity [8]: Active; Activity [9]: Active
O=C1c2cccc3cccc(c23)C(=O)N1CCSc1nnc(CCCn2nc(Cc3ccc(F)cc3)c3ccccc3c2=O)o1	> 25	> 25	> 25	Active	Active	Active	
CN(C)c1ccc2cc3ccc(N(C)C)cc3nc2c1							Activity [14]: Active
O=C1c2cccc3cccc(c23)C(=O)N1CCCc1nnc(CCn2nc(Cc3ccc(F)cc3)c3ccccc3c2=O)o1	> 25	> 25	> 25	Active	Active	Active	
